Laboratory results taken from US7115639B2, “Pyrrolidine oxadiazole- and thiadiazole oxime derivatives being oxytocin receptor antagonists” (Applied Research Systems ARS Holding N.V., priority 2001, dated 2006).

Assays:
[1] = tested on: oxytocin-induced uterine contractions in the rat; test: In vivo model for inhibition of uterine contractions
Protocol: d) In Vivo Model for Inhibition of Uterine Contractions
The assay intends to show the biological effect of tested compounds in an in vivo model of preterm labor, premature birth.
Non-pregnant Charles River CD(SD) BR female rats (9–10 weeks old, 200–250 g) were treated at 18 and 24 hours before the experiment with 250 μg/kg, i.p. diethylstilbestrol (DES). For the assay, the animal was anaesthetised by urethane (1.75 g/kg, i.p.) and placed on an homeothermic operating table. The trachea was isolated and cannulated with a suitable polyethylene (PE) tubing. A midline incision at the hypogastrium level was made and one uterine horn exposed, its cephalic end cannulated with a PE240 tubing and, after filling the internal cavity with 0.2 ml of sterile physiological saline, connected to a “Gemini” amplifying/recording system via a P231D Gould Statham pressure transducer, in, order to measure said pressure. For the i.v. route of administration of the test compounds, one jugular vein was isolated and cannulated with a PE60 tubing connected to a butterfly needle to allow the administration by a dispensing syringe. In the case of intraduodenal administration of the test compounds, the duodenum was isolated and similarly cannulated through a small incision in its wall. One carotid artery was also isolated and cannulated with PE60 catheter and connected to a suitable syringe for blood sample collection (see below). After a stabilization period, the same dose of oxytocin was repeatedly injected intravenously at 30-min intervals. […] Further injections of the same dose of oxytocin were then made for a suitable time after treatment to assess inhibitory effects of the compounds under study. The contractile response of the uterus to oxytocin was quantified by measuring the intrauterine pressure and the number of contractions.
A total of six animals is forming one group which is treated with a given test compound at a given concentration (see above).
The effect of the test compounds were evaluated by comparing pre- and post-treatment pressure values. In addition, at 2, 30, 90 and 210 minutes after test compound administration, a 0.5-ml blood sample was withdrawn from the cannulated carotid artery of each experimental animal. Plasma was obtained by standard laboratory procedure and the resulting samples were stored at −20° C.
The activities of the pyrrolidine derivatives claimed in the formula I were assessed using the above described in vivo biological assay. The values refer to the capacity of the example compound according to formula I to effectively antagonize oxytocin-induced uterine contractions in the rat.

[2] = tested on: oxytocin-induced uterine contractions in the rat; test: as above; remark: listed apart in the source
hOT-R = target: T1, hOT-R (Homo sapiens, UniProt P30559); test: Functional assay No. 1: inhibition of Ca2+-mobilization by FLIPR; type: cell-based; conditions: HEK cells, OT 40 nM
T1 construct: expressed in transfected cells; host or cells: HEK (Human Embryonic Kidney) cells
T1 sequence (P30559 1-389): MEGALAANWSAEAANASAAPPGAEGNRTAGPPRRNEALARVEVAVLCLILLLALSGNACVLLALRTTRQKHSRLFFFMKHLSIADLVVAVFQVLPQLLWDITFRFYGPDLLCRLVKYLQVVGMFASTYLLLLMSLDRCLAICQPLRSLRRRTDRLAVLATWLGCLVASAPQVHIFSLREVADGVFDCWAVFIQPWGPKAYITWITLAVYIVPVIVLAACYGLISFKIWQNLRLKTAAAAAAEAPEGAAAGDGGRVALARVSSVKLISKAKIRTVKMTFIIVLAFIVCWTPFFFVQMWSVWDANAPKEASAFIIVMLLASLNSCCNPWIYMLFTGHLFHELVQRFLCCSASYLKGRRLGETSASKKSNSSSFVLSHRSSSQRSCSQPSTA
Description: b) Functional Assay No. 1: Inhibition of Ca^2+-mobilization by FLIPR (Fluorescent Imaging Plate Reader)
FLIPR is a machine for fluorescence imaging using a laser that is capable of illuminating a 96-well plate and a means of simultaneously reading each well thus enabling rapid measurements on a large number of samples.
This assay intends to show the inhibition of the OT/OT-R mediated calcium mobilisation—being necessary to cause uterine contractions—by using test compounds of formula (I).
Preparing the plates: FLIPR-plates were pre-coated with PLL (Poly-L-Lysine) 10 μg/ml+0.1% gelatine to attach the HEK (Human Embryonic Kidney) cells for 30 min up to 2 days at 37° C. The cells were plated out into 96-well plates (60000 cells/well).
Labelling with fluo-4: 50 μg fluo-4 (fluorescent marker) were dissolved in 20 μl pluronic acid (20% in DMSO). The dissolved fluo-4 was then diluted in 10 ml DMEM (Dubecco's Minimal Essential Medium-F12 medium without FCS (Fetal Calf Serum). The medium was removed from the plates, followed by one wash with DMEM-F12 medium. Now, 100 μl of the DMEM-F12 medium containing fluo-4 were added and the cells incubated for 1–1.5 h (CHO-cells), and 1.5–2 h (HEK-cells). The cells now contain the fluorescent marker.
Buffer: 145 mM NaCl, 5 mM KCl, 1 mM MgCl2, 10 mM Hepes, 10 mM Glucose, EGTA (Ethylene-bis oxyethylene nitrilo tetraacetic acid). Adjust to pH 7.4.
Performance of the assay: A minimum of 80 μl/well of antagonists (5×) in the above buffer (1×) were prepared (96-well plates). The antagonists were added to the well-plates at different concentrations (30 μM, 10 μM, 1 μM, 300 nM, 100 nM, 10 nM, 1 nM, 100 pM, 10 pM).
OT is added at a concentration of 40 nM.
The fluorescent market being sensitive to the amount of Ca^2+ mobilized within the cell may be quantified by the FLIPR machine.
The activities of the pyrrolidine derivatives according to formula I were assessed using the above described in vitro biological assay. The values refer to the capacity of the example compounds according to formula I to effectively antagonize oxytocin-induced intracellular Ca^2+-mobilization mediated by the Oxytocin receptor.

hOT receptor = target: T2, hOT receptor (Homo sapiens, UniProt P30559); test: In vitro competition binding assay with scintillating proximity assay; conditions: [125I]-OVTA competition; membranes from HEK293EBNA cells expressing the hOT receptor; read-out: Binding affinity human OT-R IC50
T2 construct: expressed in transfected cells; host or cells: HEK293EBNA
T2 sequence (P30559 1-389): T1 sequence (P30559 1-389)
Protocol: a) In Vitro Competition Binding Assay with Scintillating Proximity Assay (Pharmaceutical Manufacturing International, 1992, p. 49–53 by Cook, N. D. et al)
This assays allows to determine the affinity of the test compounds for the OT receptor. Membranes from HEK293EBNA cells expressing the hOT receptor were resuspended in buffer containing 50 mM Tris-HCl, pH 7.4, 5 mM MgCl2 and 0.1% BSA (w/v). The membranes (2–4 μg) were mixed with 0.1 mg wheat-germ aglutinin (WGA) SPA bead (type A) and 0.2 nM of the radiolabel [^125I]-OVTA (OVTA being Ornithin Vasoactive and is an analogue of OT for competition binding experiments). Non-specific binding was determined in the presence of 1 μM Oxytocin. The total assay volume was 100 μl. The plates (Corning® NBS plate) were incubated at room temperature for 30 min and counted on a Mibrobeta plate counter. The tests compounds were used in concentrations of 30 μM, 10 μM, 1 μM, 300 nM, 100 nM, 10 nM, 1 nM, 100 pM, 10 pM. The competition binding data were analysed using the iterative, non-linear, curve-fitting program, “Prism”.
The binding affinities to the oxytocin receptor of the pyrrolidine derivatives claimed in the formula I were assessed using the above described in vitro biological assay. The values refer to the binding affinity (IC50; μM) of the example compounds according to formula I to the Oxytocin receptor.

IC50 (hOT-R)	IC50 (hOT receptor)	Compound	also measured
4 nM	9 nM	CO/N=C1/C[C@@H](c2nc(C)no2)N(C(=O)c2ccc(-c3ccccc3C)cc2)C1 [(3Z,5S)-1-[(2′-methyl[1,1′-biphenyl]-4-yl)carbonyl]-5-(3-methyl-1,2,4-oxadiazol-5-yl)-3-pyrrolidinone O-methyloxime]	% Reduction of Uterine Contraction ([1]; Intravenous, NP3S 5 ml/kg infusion, 0.3 mg/kg): −21.5 ± 7.3%; % Reduction of Uterine Contraction ([1]; Intravenous, NP3S 5 ml/kg infusion, 1 mg/kg): −44.6 ± 7.1%; % Reduction of Uterine Contraction ([1]; Intravenous, NP3S 5 ml/kg infusion, 10 mg/kg): −67.2 ± 10.1%; % Reduction of Uterine Contraction ([2]; Intravenous, NP3S 5 ml/kg infusion, 3 mg/kg): −58.0 ±5.9%; % Reduction of Uterine Contraction ([2]; Intravenous, NP3S, 7.5 ml/kg infusion, 30 mg/kg): −80.3 ± 5.1%
12 nM	21 nM	CON=C1C[C@@H](c2nc(C)no2)N(C(=O)c2ccc(-c3ccccc3C)cc2)C1 [(3EZ,5S)-1-[(2′-methyl[1,1′-biphenyl]-4-yl)carbonyl]-5-(3-methyl-1,2,4-oxadiazol-5-yl)-3-pyrrolidinone O-methyloxime]	
		CO/N=C1/C[C@@H](c2noc(CN(C)C)n2)N(C(=O)c2ccc(-c3ccccc3)cc2)C1 [(3Z,5S)-1-([1,1′-biphenyl]-4-ylcarbonyl)-5-{5-[(dimethylamino)methyl]-1,2,4-oxadiazol-3-yl}-3-pyrrolidinone O-methyloxime]	% Reduction of Uterine Contraction ([1]; oral, NP3S, 10 mg/kg): −49.5 ± 6.1%; % Reduction of Uterine Contraction ([1]; oral, NP3S, 30 mg/kg): −74.4 ± 4.2%; % Reduction of Uterine Contraction ([2]; oral, NP3S, 1 mg/kg): −11.1 ± 1.3%; % Reduction of Uterine Contraction ([2]; oral, NP3S, 3 mg/kg): −42.1 ± 2.9%
		CO/N=C1\C[C@@H](c2nc(CCO)no2)N(C(=O)c2ccc(-c3ccccc3)cc2)C1 [Example 9 (3E), (3E,5S)-1-([1,1′-biphenyl]-4-ylcarbonyl)-5-[3-(2-hydroxyethyl)-1,2,4-oxadiazol-5-yl]-3-pyrrolidinone O-methyloxime]	melting point: 140.5 °C
	2 nM	CON=C1C[C@@H](c2noc(C3CCN(C(C)=O)CC3)n2)N(C(=O)c2ccc(-c3ccccc3)cc2)C1 [(3EZ,5S)-5-[5-(1-acetyl-4-piperidinyl)-1,2,4-oxadiazol-3-yl]-1-([1,1′-biphenyl]-4-ylcarbonyl)-3-pyrrolidinone O-methyloxime]	
	23 nM	CO/N=C1\C[C@@H](c2nc(C)no2)N(C(=O)c2ccc(-c3ccccc3C)cc2)C1 [(3E,5S)-1-[(2′-methyl[1,1′-biphenyl]-4-yl)carbonyl]-5-(3-methyl-1,2,4-oxadiazol-5-yl)-3-pyrrolidinone O-methyloxime]	
1 nM		CON=C1C[C@@H](c2nc(C)no2)N(C(=O)c2ccc(-c3ccccc3Cl)cc2)C1 [(3EZ,5S)-1-[(2′-chloro[1,1′-biphenyl]-4-yl)carbonyl]-5-(3-methyl-1,2,4-oxadiazol-5-yl)-3-pyrrolidinone O-methyloxime]	
	3 nM	CON=C1C[C@@H](c2noc(CNC(C)=O)n2)N(C(=O)c2ccc(-c3ccccc3)cc2)C1 [N-({3-[(2S,4EZ)-1-([1,1′-biphenyl]-4-ylcarbonyl)-4-(methoxyimino)pyrrolidinyl]-1,2,4-oxadiazol-5-yl}methyl)acetamide]	
220 nM	211 nM	CON=C1C[C@@H](c2nnco2)N(C(=O)c2ccc(-c3ccccc3)cc2)C1 [(3EZ,5S)-1-([1,1′-biphenyl]-4-ylcarbonyl)-5-(1,3,4-oxadiazol-2-yl)-3-pyrrolidinone O-methyloxime]	
4 nM	88 nM	CON=C1C[C@@H](c2nc(C)no2)N(C(=O)c2ccc(-c3ccccc3)cc2)C1 [(3EZ,5S)-1-([1,1′-biphenyl]-4-ylcarbonyl)-5-(3-methyl-1,2,4-oxadiazol-5-yl)-3-pyrrolidinone O-methyloxime]	
	6 nM	CCC(O)c1noc([C@@H]2CC(=NOC)CN2C(=O)c2ccc(-c3ccccc3)cc2)n1 (mixture of isomers) [(3EZ,5S)-1-([1,1′-biphenyl]-4-ylcarbonyl)-5-{3-[(1RS)-1-hydroxypropyl]-1,2,4-oxadiazol-5-yl}-3-pyrrolidinone O-methyloxime]	
	7 nM	CON=C1C[C@@H](c2nc(CC(=O)N3CCCC3)no2)N(C(=O)c2ccc(-c3ccccc3)cc2)C1 [(3EZ,5S)-1-([1,1′-biphenyl]-4-ylcarbonyl)-5-{3-[2-oxo-2-(1-pyrrolidinyl)ethyl]-1,2,4-oxadiazol-5-yl}-3-pyrrolidinone O-methyloxime]	
	11 nM	CON=C1C[C@@H](c2nc(CCO)no2)N(C(=O)c2ccc(-c3ccccc3)cc2)C1 [(3EZ,5S)-1-([1,1′-biphenyl]-4-ylcarbonyl)-5-[3-(2-hydroxyethyl)-1,2,4-oxadiazol-5-yl]-3-pyrrolidinone O-methyloxime]	
